The target in this assay is T1, TLR9 (Homo sapiens, UniProt Q9NR96).
T1 sequence (Q9NR96 26-1032): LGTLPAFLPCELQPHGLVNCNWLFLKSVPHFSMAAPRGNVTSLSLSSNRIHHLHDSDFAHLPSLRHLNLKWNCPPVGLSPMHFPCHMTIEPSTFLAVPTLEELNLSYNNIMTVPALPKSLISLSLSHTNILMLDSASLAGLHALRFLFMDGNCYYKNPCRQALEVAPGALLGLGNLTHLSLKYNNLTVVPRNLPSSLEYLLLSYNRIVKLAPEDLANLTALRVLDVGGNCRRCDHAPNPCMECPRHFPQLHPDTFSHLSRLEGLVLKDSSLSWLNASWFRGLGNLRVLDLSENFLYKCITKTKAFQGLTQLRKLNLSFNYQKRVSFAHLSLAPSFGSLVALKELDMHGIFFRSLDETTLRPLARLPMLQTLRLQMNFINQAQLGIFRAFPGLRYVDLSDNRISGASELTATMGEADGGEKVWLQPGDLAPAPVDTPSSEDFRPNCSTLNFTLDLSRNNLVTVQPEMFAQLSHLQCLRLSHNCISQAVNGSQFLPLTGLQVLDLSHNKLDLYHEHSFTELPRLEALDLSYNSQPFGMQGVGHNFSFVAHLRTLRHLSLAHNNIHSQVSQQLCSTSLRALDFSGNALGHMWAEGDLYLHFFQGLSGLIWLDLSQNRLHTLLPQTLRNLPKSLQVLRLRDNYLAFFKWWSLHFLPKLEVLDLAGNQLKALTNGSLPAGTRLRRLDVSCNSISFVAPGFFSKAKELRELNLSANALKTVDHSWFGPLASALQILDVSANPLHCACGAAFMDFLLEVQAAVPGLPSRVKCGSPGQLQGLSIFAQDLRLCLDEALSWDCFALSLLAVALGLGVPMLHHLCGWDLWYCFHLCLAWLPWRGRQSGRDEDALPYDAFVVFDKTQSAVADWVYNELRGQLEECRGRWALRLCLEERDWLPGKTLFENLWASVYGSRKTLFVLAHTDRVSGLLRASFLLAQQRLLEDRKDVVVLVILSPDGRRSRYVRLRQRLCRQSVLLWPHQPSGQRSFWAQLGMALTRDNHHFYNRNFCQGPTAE
The assay can be described thus: Subsequent human PBMC assay, DNA-mediated activation of TLR9, IL-6 and IFN-α. The assay is classed as cell-based. The method, then: Human PBMC Cell-Based Assay. Human peripheral blood mononuclear cells (PBMC) were isolated from freshly-drawn heparinized (10 USP units/ml, Hospira, Lakeforest, Ill.) healthy donor whole blood by density gradient (Histopaque® 1077, Sigma, Inc., St. Louis, Mo.). Briefly, 25 ml blood was diluted with 15 ml PBS (without Ca^2+, Mg^2+) in a 50 ml conical tube, and 12 ml Histopaque was underlaid using a spinal needle. Tubes were centrifuged for 45 minutes at 1200 rpm (350×g), and PBMC were collected from the buffy coat. Cells were then washed twice in PBS, and red blood cells were lysed by suspension in 5 ml ammonium chloride solution (1× Red Blood Cell Lysis Buffer, eBioscience) for 5 minutes at room temperature. After a final wash in PBS, PBMC were resuspended at a final concentration of 2×10^6/ml in RPMI-1640 media with L-glutamine (Invitrogen) and supplemented with 25 mM HEPES (Mediatech, Inc, Manassas Va.), 10% fetal bovine serum (HyClone, Logan, Utah), and Penicillin-Streptomycin-Glutamine (Mediatech) and plated at 100 ul/well (2×10^5 cells/well) in tissue culture treated 96-well plates (Falcon).
Antagonist compounds solubilized and serial diluted in 100% DMSO were added in triplicate to cells to yield a final concentration of 0.1% DMSO (v/v). Hydroxychloroquine (Acros Organics) solubilized and serial diluted in PBS was added in triplicate to cells. PBMC were incubated with antagonist compounds or HCQ for 30 minutes at 37° C., 5% CO2 before adding various TLR agonist reagents in 100 ul complete media per well as follows (final concentrations indicated): R848 (Resiquimod; GLSynthesis, Worcester, Mass.) at 1 uM for TLR7 and TLR8, LPS (Sigma) at 10 ng/ml for TLR4, and CpG-2216 (InvivoGen) at 5 ug/ml for TLR9. To prepare a TLR7/8 agonist that mimics RNA-containing auto-antibody immune complexes in lupus patients, a 26-mer RNA with a sequence derived from human U1 snRNA stem loop IV [(sequence: […]-[…] (SEQ ID NO: 2) with phosphorothioate backbone] was synthesized (Dharmacon, Inc., Lafayette, Colo.), which has been shown previously to be a potent TLR7 and TLR8 agonist. This RNA molecule was diluted to 2.5 μM in serum-free RPMI, and mouse anti-human single stranded DNA monoclonal antibody (MAB3034, Millipore, Inc., Billerica, Mass.), which also cross-reacts with RNA, was added at a 1:25 dilution or at 1 ug/ml. The resulting “RNA-Ig” stimulus was incubated at room temperature for 15-30 minutes before adding to cells. PBMC were incubated with the various TLR agonists for 20 hours at 37° C., 5% CO2. Cell culture supernatants were collected, and levels of various human cytokines were assessed as indicated by standard ELISA procedure according to the manufacturer's recommended protocol (BD Biosciences, Inc., San Diego, Calif.). In a subsequent assay (Table 6) the ability of ER-899742 to block stimulation of normal PBMC by various TLR7/8 ligands, but not DNA-mediated activation of TLR9, was examined. In this assay cells were plated at 1×10^5 cells/well in 100 ul in 96-well plates.

2 molecules from patent publication USRE47193E1, “Selectively substituted quinoline compounds” (EISAI R&D MANAGEMENT CO., LTD., priority 2013, dated 2019) can be followed below.

Values joined by “and” are separate entries in the source; they are usually repeats but may differ in a detail not shown here. Equal values may be shown once. Read-outs that look alike come from different tables or passages of the source.

As to `C[C@@H]1CN(c2ccc(C#N)c3ncccc23)C[C@H](C(=O)N[C@H]2CNC[C@H]2F)O1.Cl` [ER-899742, (2R,6R)-4-(8-cyanoquinolin-5-yl)-N-[(3S,4R)-4-fluoropyrrolidin-3-yl]-6-methylmorpholine-2-carboxamide hydrochloride], the IC50 – broadly, the concentration that inhibits the measured activity by half – is, setting by setting: (IC50 IFN-α Ave., human PBMC, ligand ODN2006-DOTAP, average of donors) more than 10000 nM; (IC50 IFN-α Ave., human PBMC, ligand ODN2216-Ig, average of donors) more than 10000 nM; (IC50 IFN-α, human PBMC, ligand ODN2006-DOTAP, individual donors) more than 10000 nM; (IC50 IFN-α, human PBMC, ligand ODN2216-Ig, individual donors) more than 10000 nM; (IC50 IL-6, human PBMC, ligand ODN2006-DOTAP, individual donors) more than 10000 nM; (IC50 IL-6, human PBMC, ligand ODN2216-Ig, individual donors) more than 10000 nM. Also, the IC50 is, setting by setting: (IC50 IL-6 Ave., human PBMC, ligand ODN2006-DOTAP, average of donors) more than 10000 nM; (IC50 IL-6 Ave., human PBMC, ligand ODN2216-Ig, average of donors) more than 10000 nM.

On to `CCN(CCO)CCCC(C)Nc1ccnc2cc(Cl)ccc12` (stereo not drawn) [HCQ, hydroxychloroquine, reference compound], for which the IC50 is, setting by setting: (human PBMC, ligand ODN2006-DOTAP, average of donors, read-out: IC50 IFN-α Ave.) 3020 nM; (human PBMC, ligand ODN2006-DOTAP, average of donors, read-out: IC50 IL-6 Ave.) 1720 nM; (human PBMC, ligand ODN2006-DOTAP, individual donors, read-out: IC50 IFN-α) 910 nM and 4100 nM and 3100 nM and 3960 nM; (human PBMC, ligand ODN2006-DOTAP, individual donors, read-out: IC50 IL-6) 1200 nM and 1240 nM and 1540 nM and 2400 nM and 1580 nM and 2370 nM; (human PBMC, ligand ODN2216-Ig, average of donors, read-out: IC50 IFN-α Ave.) 290 nM; (human PBMC, ligand ODN2216-Ig, average of donors, read-out: IC50 IL-6 Ave.) 2380 nM. For the same molecule, the IC50 (human PBMC, ligand ODN2216-Ig, individual donors, read-out: IC50 IFN-α) is 280 nM and 290 nM.
